From patent US20030232871A1 (priority 2002, published 2003)
Entries after “also recorded” stand apart in the source; their conditions may differ.

Tests used:
[1] = True density by helium pycnometry; assay type: physicochemical
[2] = Moisture sorption (Dynamic Vapor Water Sorption analyzer); assay type: physicochemical; details: 25° C.; for hygroscopicity compared with Form A: up to about 80% RH
Method: Moisture sorption data were collected at 25° C. from 0% to 80% RH using a Surface Measurement Systems Dynamic Vapor Water Sorption analyzer. The equilibrium window was for a dm/dT of 0.0003 or a maximum time of 120 minutes.

[3] = Thermodynamic parameters from eutectic melting data (ΔG−T and ΔG/T−1/T plots); assay type: physicochemical; details: for Tt (transition temperature): LT form to HT = Form A, calculated as Tt=ΔH/ΔS; for ΔH / ΔS: transition of low temperature form (LT) to HT = Form A, derived from eutectic melting data
Method: Based on the Heat of Transition Rule both Forms B and E are believed to be enantiotropically related to Form A, meaning there is a change in the stability relationship between the forms around a transition temperature Tt. Determination of Tt for Forms B and E with respect to Form A was performed by the use of eutectic melting data. Eutectics were formed between a reference compound (RC) and each of Forms A, B and E of parecoxib sodium. Subsequently heat of fusion data were used to derive the free energy difference between the crystal forms at the eutectic temperature (equation I): xej(Gj-Gi)Tei=Δ[…])]} (equation I) wherein xej and xei are the mole fraction of crystal forms j and i respectively in the eutectic; (Gj-Gi) is the free energy difference between crystal forms i and j at Tei; ΔHmej and ΔHmei are the enthalpy of eutectic melting of crystal forms j and i respectively; Tei and Tej are the temperatures of eutectic melting of crystal forms i and j respectively; ΔCpij is the heat capacity change across the eutectic melt; and R is the ideal gas constant. […] By definition, the free energy difference between crystal forms is zero at the transition temperature. The transition temperature given in Table 5 above was calculated according to equation II: Tt=ΔH/ΔS (equation II)

[4] = Solution calorimetry (heat of solution); assay type: physicochemical; details: LT form / Form A pair
COX-1 = COX-1 (Homo sapiens, UniProt P23219); details: background statement; cited from earlier work
Sequence of COX-1 (P23219 24-599): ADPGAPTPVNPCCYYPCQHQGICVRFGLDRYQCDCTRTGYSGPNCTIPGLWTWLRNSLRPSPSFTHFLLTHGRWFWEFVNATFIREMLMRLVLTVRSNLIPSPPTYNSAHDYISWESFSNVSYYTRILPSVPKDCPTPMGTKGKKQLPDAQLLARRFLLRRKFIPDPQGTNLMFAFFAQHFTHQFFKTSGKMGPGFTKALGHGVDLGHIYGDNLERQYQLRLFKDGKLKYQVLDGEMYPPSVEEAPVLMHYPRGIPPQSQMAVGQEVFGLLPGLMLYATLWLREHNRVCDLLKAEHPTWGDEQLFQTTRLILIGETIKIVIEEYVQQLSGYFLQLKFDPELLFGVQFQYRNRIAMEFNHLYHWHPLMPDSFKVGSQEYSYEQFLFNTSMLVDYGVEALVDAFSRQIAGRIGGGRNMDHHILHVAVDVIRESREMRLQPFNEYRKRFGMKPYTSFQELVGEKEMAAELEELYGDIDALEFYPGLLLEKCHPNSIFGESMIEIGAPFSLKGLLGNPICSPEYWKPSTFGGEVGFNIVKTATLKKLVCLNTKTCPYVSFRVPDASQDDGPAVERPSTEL

Structure (SMILES) | true density [1] | moisture sorbed ([2]; 0-60% RH range) | Tt (transition temperature) [3] | ΔH [3] | ΔS [3] | ΔH from heat of solution data [4] | hygroscopicity compared with Form A [2] | behaviour above 60% RH ([2]; above 60% RH) | in vitro inhibitory activity against COX-1 (COX-1)
Cc1onc(-c2ccccc2)c1-c1ccc(S(N)(=O)=O)cc1 [valdecoxib] | – | – | – | – | – | – | – | – | weak
CCC(=O)NS(=O)(=O)c1ccc(-c2c(-c3ccccc3)noc2C)cc1 [Parecoxib] | – | – | – | – | – | – | – | – | weak

Continued, in another order:

true density [1] | moisture sorbed ([2]; 0-60% RH range) | Tt (transition temperature) [3] | ΔH [3] | ΔS [3] | ΔH from heat of solution data [4] | hygroscopicity compared with Form A [2] | Structure (SMILES) | behaviour above 60% RH ([2]; above 60% RH) | in vitro inhibitory activity against COX-1 (COX-1)
1.34 ± 0.01 g/mL | less than 1% | – | – | – | – | – | CCC(=O)[N-]S(=O)(=O)c1ccc(-c2c(-c3ccccc3)noc2C)cc1.[Na+] [Form A, parecoxib sodium] | deliquesced; also recorded: greater tendency to sorb water and even to deliquesce | –
1.46 ± 0.01 g/mL | – | 163.3 °C | 16.63 kJ/mol | 38.1 J/mole/K | 15.34 kJ/mol | less hygroscopic than Form A | CCC(=O)[N-]S(=O)(=O)c1ccc(-c2c(-c3ccccc3)noc2C)cc1.[Na+] [Form B, parecoxib sodium] | – | –
1.42 ± 0.01 g/mL | – | 163.9 °C | 17.15 kJ/mol | 39.2 J/mole/K | 17.94 kJ/mol | less hygroscopic than Form A | CCC(=O)[N-]S(=O)(=O)c1ccc(-c2c(-c3ccccc3)noc2C)cc1.[Na+] [Form E, parecoxib sodium] | – | –
